For orientation: GI50 means the concentration giving 50% growth inhibition.

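The compound was tested at five concentrations on cells cultured in 96-well plates, with a 48-hour exposure period. GI50 = concentration required for 50% inhibition of growth.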 Activity calls are given as the source filed them. No stated cut-off is given here; in the data, active = GI50 up to about 1.1 µM and inactive = higher.

Test systems include RPMI-8226; NCI-H460; SK-OV-3; K562; UO-31; RXF 393; NCI-H522; SR; KM12; OVCAR-8; UACC-257; PC-3; A498; MDA-N; IGROV-1; HT-29; OVCAR-5; HOP-62; SK-MEL-2; LXFL 529.
What all share (assay): DTP human tumour cell line panel, 48 h

With `C[C@]12CC[C@@H]3c4cc(OCC(F)(F)F)c(O)cc4CC[C@H]3[C@@H]1CC[C@@H]2O`, the GI50 with RPMI-8226 is 1.17 µM (inactive); in the assay with NCI-H460, 1.44 µM (inactive); with SK-OV-3 it was 1.69 µM (inactive); in the assay on K562, 0.438 µM (active); in the assay on UO-31, 8.65 µM (inactive); with RXF 393 it was 1.52 µM (inactive). Further, the GI50 in the assay with NCI-H522 was 0.558 µM (active); with SR it was 0.335 µM (active); in the assay on KM12, 4.06 µM (inactive); in the assay with OVCAR-8 it was 4.83 µM (inactive); in the assay on UACC-257, 7.1 µM (inactive); in the assay on PC-3 it was 2.28 µM (inactive). The GI50 in the assay with A498 was 7.66 µM (inactive); with MDA-N, 0.287 µM (active); with IGROV-1 it was 6.89 µM (inactive); in the assay on HT-29, 4.06 µM (inactive); in the assay on OVCAR-5, 18.7 µM (inactive); with HOP-62, 11.6 µM (inactive). Moreover, in the assay on SK-MEL-2, the GI50 is 4.55 µM (inactive).
As for `CC(C)(C)OC(=O)NCCNC(=O)CN(CC(=O)O)C1CCCCC1N(CC(=O)O)CC(=O)O` (centres undefined), the GI50 in the assay with RPMI-8226, in the assay on NCI-H460, in the assay with SK-OV-3, in the assay with K562, with UO-31 and in the assay on RXF 393 was > 100 µM (inactive) in each case. Further, the GI50 in the assay with NCI-H522, in the assay with SR, in the assay on KM12, with OVCAR-8, in the assay with UACC-257 and in the assay on PC-3 was > 100 µM (inactive) in each case. The GI50 in the assay with A498, in the assay on MDA-N, with IGROV-1, with HT-29, with OVCAR-5 and in the assay with HOP-62 was > 100 µM (inactive) throughout. Further, the GI50 in the assay with SK-MEL-2 was > 100 µM (inactive).
Turning to `COc1cc(/C=N/n2c(-c3ccccc3)nn(C(C)=O)c2=O)cc(OC)c1OC`, the GI50 with RPMI-8226 is 1.49 µM (inactive); in the assay with NCI-H460, 0.619 µM (active); in the assay on SK-OV-3, 4.2 µM (inactive); in the assay with K562 it was 0.557 µM (active); in the assay with UO-31, 1.57 µM (inactive); in the assay with RXF 393, 5.26 µM (inactive). The 50% growth inhibitory concentration (GI50) in the assay with NCI-H522 is 0.818 µM (active); in the assay with SR, 0.0875 µM (active); in the assay with KM12, 0.521 µM (active); with OVCAR-8, 3.78 µM (inactive); in the assay on UACC-257, 3.24 µM (inactive); in the assay with PC-3 it was 2.07 µM (inactive). Further, the GI50 was 1.59 µM (inactive) in the assay with A498; 0.228 µM (active) with MDA-N; 2.11 µM (inactive) with IGROV-1; 0.405 µM (active) in the assay on HT-29; 20 µM (inactive) with OVCAR-5; 12 µM (inactive) with HOP-62. For the same molecule, the GI50 with SK-MEL-2 is 1.72 µM (inactive).
Turning to `COc1ccc2c(c1)CC[C@@H]1C2CC[C@]2(C)C(=O)NC(=O)CC12` (some centres undefined), the GI50 in the assay with RPMI-8226 is > 100 µM (inactive); with NCI-H460, > 100 µM (inactive); in the assay with SK-OV-3, > 100 µM (inactive); in the assay on K562, 25.2 µM (inactive); in the assay on UO-31, 97.7 µM (inactive); in the assay on LXFL 529, 59.3 µM (inactive). The GI50 in the assay with NCI-H522, in the assay with KM12, with OVCAR-8, in the assay with UACC-257, in the assay on A498 and in the assay with IGROV-1 was > 100 µM (inactive) throughout. Moreover, the GI50 with HT-29 is 56.2 µM (inactive); in the assay on OVCAR-5, > 100 µM (inactive); in the assay on HOP-62 it was > 100 µM (inactive); with SK-MEL-2, > 100 µM (inactive).
For `O=C(/C=C1\C[C@H]2C=Nc3ccccc3C(=O)N2C1)NCCCNC(=O)/C=C1\C[C@H]2C=Nc3ccccc3C(=O)N2C1`, the GI50 with RPMI-8226 was 10.1 µM (inactive); in the assay with NCI-H460 it was 18.6 µM (inactive); in the assay on SK-OV-3, 18.5 µM (inactive); with K562, 5.96 µM (inactive); in the assay on UO-31 it was 14.7 µM (inactive); in the assay on RXF 393, 13.6 µM (inactive). Also, the GI50 with NCI-H522 was 1.96 µM (inactive); with SR it was 2.11 µM (inactive); in the assay with KM12, 16 µM (inactive); in the assay on OVCAR-8, 18.6 µM (inactive); in the assay on UACC-257, 16.5 µM (inactive); in the assay on PC-3, 17.6 µM (inactive). Besides, the GI50 in the assay with A498 is 17.5 µM (inactive); in the assay with MDA-N, 17.1 µM (inactive); in the assay on IGROV-1, 17.3 µM (inactive); in the assay on HT-29, 16.4 µM (inactive); with OVCAR-5 it was 21.2 µM (inactive); with HOP-62, 16.6 µM (inactive). Also, the GI50 in the assay with SK-MEL-2 is 19.3 µM (inactive).
For the molecule `Cc1ccc(C(=O)/C=C2\Nc3ccccc3SC2=O)c(C)c1`, the GI50 is 28.5 µM (inactive) in the assay with RPMI-8226; 28.6 µM (inactive) in the assay with NCI-H460; 43.9 µM (inactive) in the assay on SK-OV-3; 41.3 µM (inactive) in the assay with K562; 32.5 µM (inactive) in the assay with UO-31; < 0.01 µM (active) in the assay with RXF 393. In addition, the GI50 is 26.9 µM (inactive) in the assay with NCI-H522; 28.3 µM (inactive) in the assay on SR; 46.8 µM (inactive) in the assay with KM12; 35.6 µM (inactive) in the assay with OVCAR-8; 42 µM (inactive) in the assay on UACC-257; 47.9 µM (inactive) in the assay with PC-3. Moreover, the GI50 in the assay with A498 was > 100 µM (inactive); in the assay with MDA-N it was 62.2 µM (inactive); in the assay with IGROV-1, 29.8 µM (inactive); in the assay with HT-29, 45.6 µM (inactive); in the assay on OVCAR-5 it was > 100 µM (inactive); in the assay with HOP-62, 32.9 µM (inactive). Besides, in the assay with SK-MEL-2, the GI50 is 42.1 µM (inactive).
Consider `CC1C(NNc2ccccc2)Oc2cc3c(cc2C1c1ccccc1O)OCO3` (centres undefined), for which the GI50 in the assay with RPMI-8226 was 4.07 µM (inactive); with NCI-H460 it was 2.81 µM (inactive); in the assay with SK-OV-3, 10.5 µM (inactive); in the assay with K562, 0.444 µM (active); in the assay with UO-31 it was 1.59 µM (inactive); with RXF 393, 15.7 µM (inactive). Also, the GI50 was 0.575 µM (active) with NCI-H522; 0.284 µM (active) in the assay with SR; 0.741 µM (active) in the assay on KM12; 10 µM (inactive) in the assay on OVCAR-8; 6.89 µM (inactive) in the assay with UACC-257; 3.2 µM (inactive) in the assay on PC-3. The GI50 was 15.7 µM (inactive) in the assay on A498; 4.06 µM (inactive) in the assay on MDA-N; 1.7 µM (inactive) with IGROV-1; 6.03 µM (inactive) in the assay with HT-29; 4.61 µM (inactive) with OVCAR-5; 3.1 µM (inactive) in the assay with HOP-62. Moreover, in the assay on SK-MEL-2, the GI50 is 10.9 µM (inactive).
With `C[C@]12CCC(=O)C=C1CC[C@@H]1[C@@H]2[C@@H](O)C[C@@]2(C)[C@H]1CC[C@]2(O)C(=O)CO` [HYDROCORTISONE], the GI50 in the assay with RPMI-8226 was 0.34 µM (active); with NCI-H460, > 100 µM (inactive); with SK-OV-3, > 100 µM (inactive); in the assay with K562 it was > 100 µM (inactive); in the assay on UO-31 it was > 100 µM (inactive); in the assay on RXF 393 it was > 100 µM (inactive). For the same molecule, the GI50 with NCI-H522, in the assay on SR, in the assay on KM12, in the assay on OVCAR-8, in the assay on UACC-257 and in the assay with PC-3 was > 100 µM (inactive) each time. Further, the GI50 in the assay with A498, in the assay on MDA-N, with IGROV-1, in the assay on HT-29, in the assay with OVCAR-5 and in the assay on HOP-62 was > 100 µM (inactive) each time. Also, in the assay with SK-MEL-2, the GI50 was > 100 µM (inactive).

The values are drawn from ChEMBL document CHEMBL1201862, “PubChem BioAssay data set” (2004).
